Assay results from patent US9453242B2, “Method and culture medium for preparing mammalian ovum or embryo in which zona pellucida has been thinned or eliminated, and method for fertilization using mammalian ovum prepared by same method” (NATIONAL UNIVERISTY CORPORATION KUMAMOTO UNIVERSITY, priority 2010, dated 2016).

Columns and labels:
[1] = system: zona pellucida of a mouse unfertilized ovum; test: Swelling of zona pellucida (area in zona pellucida) of unfertilized ovum; type: cell-based; conditions: reducing agents other than glutathione; FIG. 10, FIG. 11 (DTT 0.5, ascorbic acid 5, epicatechin 1 mM)
Protocol: Further, the influence of glutathione on swelling of zona pellucida was confirmed. […] Preparation of ovum” were treated with HTF culture media containing glutathione at various concentration at 37° C. for 6 hours, then, the area in zona pellucida was photographed under a microscope and measured by an image analysis software. The conditions of zona pellucida at glutathione concentrations of 0 mM, 1 mM, 2 mM and 10 mM were observed by an invert microscope.
The influence of other reducing agents (DTT, ascorbic acid (VC) and epicatechin (EC)) exerted on thinning and swelling of zona pellucida was confirmed in the same manner as in Example 2. The extent of swelling of the zona pellucida of an unfertilized ovum by the concentration of each reducing agent was photographed under a microscope, and determined according to the following formula. % Relative area in ZP=(area of zona pellucida in each experiment/area of zona pellucida at 0 mM)×100

[2] = system: frozen sperms of C57BL/6J mice; test: In vitro fertilization after sperm pre-incubation with MBCD and/or glutathione; type: cell-based, mouse
Protocol: A sperm suspension is pre-incubated in 90 μl of a TYH culture medium at 37° C. for 30 minutes, and under a stereomicroscope, sperms showing motility are collected, avoiding nonmotile sperms, and used for fertilization. The pre-incubated sperm suspension (10 μl) is added to 90 μl of an HTF culture medium (±glutathione) into which cumulus-oocyte complexes (COCs) have been previously introduced (insemination), and these are co-incubated in an incubator for 5 to 6 hours (37° C., 5% CO2), thereby performing fertilization. Thereafter, the ovum is washed with drops of new HTF, and the ovum is observed. Those judged to parthenogenetic (only one pronucleus is recognized in ooplasm) are excluded, and on the following day (24 hours after insemination), only 2-cell stage embryos are selected, and fertilization rate is determined according to the following formula. In vitro fertilization rate (%)=(number of 2-cell stage embryo)/(number of 2-cell stage embryo+number of unfertilized ovum)×100
The TYH culture medium used for pre-incubation of sperms was prepared according to the above-described composition excepting that polyvinyl alcohol (1.0 mg/ml, available from SIGMA) was used instead of bovine serum albumin, and methyl-β-cyclodextrin (0.75 mM, available from SIGMA) was added. Further, the concentration of glutathione in the TYH culture medium was 1 mM, preparation was carried out in the same manner as in Example 1, and glutathione was added to the TYH culture medium directly before use. The influence on fertilization rate was compared among those containing methyl-β-cyclodextrin, those containing glutathione and those containing both compounds.
Fertilization was conducted with 90 μl of an HTF culture medium (in the case of addition of glutathione, the concentration was 1 mM) containing cumulus-oocyte complexes (COCs), in the same manner as in Example 1 (IVF/glutathione in table). As the sperm, frozen sperms of C57BL/6J mice were used, and processed according to FIG. 1. Thawed sperms were pre-incubated in a TYH culture medium (±glutathione, ±methyl-β-cyclodextrin) at 37° C. for 30 minutes, and sperms showing motility were collected and used for fertilization. The experiment was conducted five times.

Compound: O[C@@H](CS)[C@@H](O)CS [DTT]
- thinning and swelling of zona pellucida [1]: thinning and swelling of zona pellucida by treatment with DTT were confirmed

Compound: O=C1O[C@H]([C@@H](O)CO)C(O)=C1O [ascorbic acid]
- thinning and swelling of zona pellucida [1]: thinning or swelling of zona pellucida did not occur

Compound: methyl-β-cyclodextrin [MBCD]
- number of 2-cell stage embryo(%) ([2]; sperm pre-incubation MBCD + (0.75 mM), glutathione −, IVF glutathione −): 65%
- number of 2-cell stage embryo ([2]; sperm pre-incubation MBCD + (0.75 mM), glutathione −, IVF glutathione −, 323 oocytes): 210
- effect of sperm pre-incubation on fertilization rate ([2]; sperms pre-incubated with 1 mM glutathione or 0.75 mM MBCD, 37° C., 30 minutes): fertilization rate was improved
